From US20060134801A1, “Methods and compositions involving MDA-7” (Board of Regents, The University of Texas System, priority 2003, published 2006)

Key:
[1] = test system: A549 cells; experiment: Radiation clonogenic survival assay; assay type: cell-based, human; conditions: A549 and H1299
Method: In vitro transfection studies for all cell lines were performed by plating 2×10^5 cells in T25 flasks. Forty-eight hours after plating, cells were incubated for 1 hour with purified vector in 1 ml of medium without serum. After 1 hour, fresh medium supplemented with 10% FBS was added to the flask. Serum-free medium was used for mock transfection.
The effectiveness of treatments was assessed by clonogenic assays. Briefly, monolayers of A549, H1299, CCD-16, and MRC-9 cells were treated in T25 flasks as described above, and after various doses of irradiation the cells were trypsinized and counted. Known numbers of cells were then replated in 100 mm culture dishes and returned to the incubator to allow macroscopic colony development.

[2] = test system: HUVEC; experiment: Endothelial cell differentiation (tube formation) assay on Matrigel; assay type: cell-based, human; conditions: for concentration required to significantly inhibit HUVEC tube formation: equimolar comparison; for tube formation in the presence of IL-22R1 antibody: high concentrations, vs PBS
Method: Endothelial cell differentiation (tube formation) assays were done using the in vitro angiogenesis assay kit (Chemicon, Temecula, Calif.). Briefly, HUVEC and HMVEC were grown to 80% confluency, collected, resuspended in growth medium, and plated at a concentration of 2−10^4 cells/well in a 96-well plate coated with Matrigel (Chemicon, Temecula, Calif.). Cells were treated with sMDA-7 protein (1, 5, 10, and 50 ng/ml), or a preparation immunodepleted of sMDA protein for 24 h at 37° C. Cells treated with PBS served as negative controls in these experiments. The ability of sMDA-7 to inhibit tube formation was determined and quantitated by counting the number of tubes under bright-field microscopy.
For experiments involving comparative studies, cells were treated with equimolar concentrations of sMDA-7 (5, 10, and 300 ng/ml), recombinant human endostatin (5.2, 10.4, and 315 ng/ml; Calbiochem, La Jolla, Calif.), recombinant IFN-γ (4.5, 9, and 268 ng/ml; R&D systems, Minneapolis, Minn.) or recombinant IP-10 (2.4, 4.5, and 134 ng/ml; R&D systems, Minneapolis, Minn.) and analyzed for tube formation assay as described above. All samples were tested in duplicate. Experiments were repeated at least 5-6 times.
For receptor blocking studies, HUVEC grown in six-well plates were pretreated with IL-22R1 blocking antibody (1 ng/ml and 5 ng/ml). Following overnight incubation, cells were harvested, washed, and plated in Matrigel coated 96-well plates. Fresh IL-22R1 blocking antibody and sMDA-7 was added to the wells in a 1:1 ratio (1 ng/ml of IL-22R1 antibody:1 ng/ml of sMDA-7) or 1:5 ratio (1 ng/ml of IL-22R1 antibody:5 ng/ml of sMDA-7) and incubated at 37° C. After overnight incubation, the plates were examined for tube formation. All other experimental procedures were the same as described above. […] The relative amount of IL-22R1 used for experiments involving endostatin was 315 ng/ml (1:1 ratio) and 134 ng/ml for experiments involving IP-10 (1:1 ratio). All other experimental procedures were the same as described previously. For blocking studies using anti-IP-10 or anti-IFN-γ neutralizing antibodies (R & D Systems), experiments were conducted as described above for receptor studies except that HUVEC were treated with the appropriate neutralizing antibody (1 μg and 5 μg/ml) prior to treatment with sMDA-7 (300 ng/ml).

[3] = test system: MDA-7 expression in PBMC; experiment: MDA-7 expression in PBMC (real time RT-PCR, intracellular FACS); assay type: cell-based, human; conditions: 100 U/ml; 6 hr; resting PBMC
Method: Cells were isolated at the designated times and protein levels measured and RNA isolated. Real time RT-PCR was performed using TaqMan OneStep procedure according to the manufacturers protocol (Applied Biosystems, Foster City Calif.). Gene specific primer/probes for MDA-7 and HPRT were purchased from Applied Biosystems. The reactions were carried out according to manufacturer's protocol using an ABI Prism 7900 HT sequence detection system and the analysis was conducted using Sequence Detection Software version 2.9. MDA-7 protein was detected by intracellular FACs analysis. Cells were treated with Brefeldin A at 10 μg/ml 4 hr prior to harvest to prohibit secretion of the cytokine. Where applicable cells were first surface stained using directly conjugated antibodies and then, to detect intracellular proteins, cells were fixed by treatment with 4% paraformaldehyde and then permeabilized with detergent, n-octyl glucopyranoside at 7 mg/ml. As the control for permeabilization, cells were also stained with a monoclonal antibody directed against the intracellular protein vimentin. Standard protocols were followed for immunofluorescence staining. Immunofluorescence was analyzed on a FACSCalibur with Cell Quest software (BD Immunosciences).
To determine what cytokines may be driving this expression, PBMC were stimulated with IL-2, a major cytokine produced during PHA activation. […]

[4] = test system: HUVECs; experiment: Clonogenic survival of endothelial cells after irradiation; assay type: cell-based, human; conditions: MDA-7 protein 10 ng/ml; angiostatin, endostatin 100 ng/ml; 12 h before irradiation
Method: Twelve hours after seeding HUVECs in 4-well plates (Nunc, Roskilde, Denmark), medium was replaced with serum/growth factor-free medium. After serum/growth factor starvation for 12 hours, cells were treated with complete medium containing either MDA-7 protein (10 ng/ml) (removed from cultures of 293 cells), angiostatin (100 ng/ml), or endostatin (100 ng/ml). Twelve hours later, cells were irradiated with ^137CS unit (3.4 Gy/min) at room temperature, trypsinized and counted. Known numbers of cells were replated in 60 mm culture dishes and incubated to allow macroscopic colony development. Colonies were counted after 14 days, and the percent plating efficiency and surviving fractions following given treatments were calculated based on the survival of non-irradiated cells.

[5] = target: T1, IL-22R1 on HUVEC (human, UniProt Q8N6P7 16-574); experiment: cell-based or functional assay
T1 sequence (looked up): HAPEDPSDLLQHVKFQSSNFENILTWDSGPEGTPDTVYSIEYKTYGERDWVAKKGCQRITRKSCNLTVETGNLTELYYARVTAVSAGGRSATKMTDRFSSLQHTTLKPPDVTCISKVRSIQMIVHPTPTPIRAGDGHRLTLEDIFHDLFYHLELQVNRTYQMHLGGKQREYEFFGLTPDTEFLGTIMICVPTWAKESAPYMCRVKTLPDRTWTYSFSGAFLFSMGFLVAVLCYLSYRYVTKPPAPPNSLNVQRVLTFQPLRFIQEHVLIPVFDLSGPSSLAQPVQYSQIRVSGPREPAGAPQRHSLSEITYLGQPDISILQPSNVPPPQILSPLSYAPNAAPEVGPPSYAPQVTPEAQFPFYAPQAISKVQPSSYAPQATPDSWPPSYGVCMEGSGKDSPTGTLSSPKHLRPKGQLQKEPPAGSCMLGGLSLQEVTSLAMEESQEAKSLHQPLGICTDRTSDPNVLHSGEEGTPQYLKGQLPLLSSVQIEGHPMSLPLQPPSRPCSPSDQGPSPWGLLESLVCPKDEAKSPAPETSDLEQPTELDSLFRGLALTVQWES

COC(=O)Nc1nc2ccc(C(=O)c3cccs3)cc2[nH]1 [Nocodazole]
radiosensitivity after G2/M arrest ([1]; 200 ng/ml): does not enhance the radiosensitivity

COc1cc(/C=C/C(=O)CC(=O)/C=C/c2ccc(O)c(OC)c2)ccc1O [curcumin, Curcumin]
Ad-mda7 radiosensitization ([1]; 10 μM): abrogated

IFN-γ: recombinant IFN-γ (R&D systems)
concentration required to significantly inhibit HUVEC tube formation [2]: 268 ng/mL

IL-15: cytokine
expression of MDA-7 mRNA and protein [3]: stimulated

IP-10: recombinant IP-10 (R&D systems)
concentration required to significantly inhibit HUVEC tube formation [2]: 134 ng/mL
tube formation in the presence of IL-22R1 antibody [2]: significantly inhibited

angiostatin
radiosensitization of HUVECs [4]: produced radiosensitizing effects

endostatin
inhibition of tube formation over control ([2]; 315 ng/ml): 40-50%
concentration required to significantly inhibit HUVEC tube formation [2]: 300 ng/mL
tube formation in the presence of IL-22R1 antibody [2]: significantly inhibited
radiosensitization of HUVECs [4]: produced radiosensitizing effects

B1: secreted MDA-7 protein (soluble, glycosylated, produced by stably transfected 293 cells) (ligand)
chain: AQGQEFHFGPCQVKGVVPQKLWEAFWAVKDTMQAQDNITSARLLQQEVLQNVSDAESCYLVHTLLEFYLKTVFKNYHNRTVEVRTLKSFSTLANNFVLIVSQLQPSQENEMFSIRDSAHRRFLLFRRAFKQLDVEAALTKALGEVDILLTWMQKFYKL
modifications: glycosylated (sites not given)
HUVEC tube formation with sMDA-7 (5 ng/ml), restoration by 1 ng/ml IL-22R1 blocking antibody (1:5 ratio) [5]: < 60%
HUVEC tube formation with sMDA-7 (5 ng/ml), restoration by 5 ng/ml IL-22R1 blocking antibody (1:1 ratio) [5]: > 90%

B2: IL-7: cytokine (protein, UniProt P13232 26-177, looked up)
Interleukin-7: DCDIEGKDGKQYESVLMVSIDQLLDSMKEIGSNCLNNEFNFFKRHICDANKEGMFLFRAARKLRQFLKMNSTGDFDLHLLKVSEGTTILLNCTGQVKGRKPAALGEAQPTKSLEENKSLKEQKKLNDLCFLKRLLQEIKTCWNKILMGTKEH
expression of MDA-7 mRNA and protein [3]: stimulated
